Activity calls are given as the source filed them.
Tests used:
Type in all cases: functional, cell-based
MCF7 = assay: Cytotoxicity against human MCF7 cells assessed as reduction in cell viability incubated for 24 hrs by MTT assay
HeLa = assay: Cytotoxicity against human HeLa cells assessed as reduction in cell viability incubated for 24 hrs by MTT assay
HepG2 = assay: Cytotoxicity against human HepG2 cells assessed as reduction in cell viability incubated for 24 hrs by MTT assay

Measured: Activity

C=C(CO[C@@H]1O[C@H](CO)[C@@H](O)[C@H](O)[C@H]1O)[C@@H]1CC[C@@]2(C1)[C@H](C)[C@@H](O)[C@H](O)C[C@H]2C(OC)OC
inactive: all assays above

C=C(CO[C@@H]1O[C@H](CO)[C@@H](O)[C@H](O)[C@H]1O)[C@@H]1CC[C@]2(C1)[C@@H](C(OC)OC)C[C@@H](O)[C@H](O)[C@H]2C
inactive: all assays above

C=C(CO[C@@H]1O[C@H](CO[C@@H]2OC[C@H](O)[C@H](O)[C@H]2O)[C@@H](O)[C@H](O)[C@H]1O)[C@@H]1CC[C@@]2(C1)C(C)=CC(=O)C[C@H]2C
inactive: all assays above

C=C(CO)[C@@H]1CC[C@]2(C1)[C@@H](CO)C[C@@H](O)[C@H](O)[C@H]2C
inactive: all assays above

C=C(CO)[C@@H]1CC[C@]2(C1)[C@H](CO)C[C@@H](O)C[C@H]2C
inactive: all assays above

C=C(CO)[C@@H]1CC[C@]2(C1)[C@H](CO)C[C@@H](O)[C@H](O)[C@H]2C
inactive: all assays above

— ChEMBL document CHEMBL4414658, “Melongenaterpenes A-L, Vetispirane-Type Sesquiterpenoids from the Roots of Solanum melongena” (J Nat Prod, 2019)
